Results taken from article PMC4385830, “Group I Paks as therapeutic targets in NF2-deficient meningioma” (Oncotarget, 2015).

What was measured:
Test in all cases: Kinase selectivity, Z'-LYTE
Type in all cases: biochemical
[1] = molecular target: T1, CSF1R (FMS) (Homo sapiens, UniProt P07333)
T1 construct: purchased Invitrogen (Life Technologies) SelectScreen Z'-LYTE
Method in brief: (§1)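 Each recombinant kinase phosphorylates a peptide substrate under conditions optimized for that enzyme. A protease then cleaves only non-phosphorylated peptide, and the fluorescence change reports kinase activity.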

[2] = molecular target: T2, MARK3 (Homo sapiens, UniProt P27448)
T2 construct: purchased Invitrogen (Life Technologies) SelectScreen Z'-LYTE
Method in brief: as §1

[3] = molecular target: T3, ABL1 (Homo sapiens, UniProt P00519)
T3 construct: purchased Invitrogen (Life Technologies) SelectScreen Z'-LYTE
T3 sequence (P00519 whole entry): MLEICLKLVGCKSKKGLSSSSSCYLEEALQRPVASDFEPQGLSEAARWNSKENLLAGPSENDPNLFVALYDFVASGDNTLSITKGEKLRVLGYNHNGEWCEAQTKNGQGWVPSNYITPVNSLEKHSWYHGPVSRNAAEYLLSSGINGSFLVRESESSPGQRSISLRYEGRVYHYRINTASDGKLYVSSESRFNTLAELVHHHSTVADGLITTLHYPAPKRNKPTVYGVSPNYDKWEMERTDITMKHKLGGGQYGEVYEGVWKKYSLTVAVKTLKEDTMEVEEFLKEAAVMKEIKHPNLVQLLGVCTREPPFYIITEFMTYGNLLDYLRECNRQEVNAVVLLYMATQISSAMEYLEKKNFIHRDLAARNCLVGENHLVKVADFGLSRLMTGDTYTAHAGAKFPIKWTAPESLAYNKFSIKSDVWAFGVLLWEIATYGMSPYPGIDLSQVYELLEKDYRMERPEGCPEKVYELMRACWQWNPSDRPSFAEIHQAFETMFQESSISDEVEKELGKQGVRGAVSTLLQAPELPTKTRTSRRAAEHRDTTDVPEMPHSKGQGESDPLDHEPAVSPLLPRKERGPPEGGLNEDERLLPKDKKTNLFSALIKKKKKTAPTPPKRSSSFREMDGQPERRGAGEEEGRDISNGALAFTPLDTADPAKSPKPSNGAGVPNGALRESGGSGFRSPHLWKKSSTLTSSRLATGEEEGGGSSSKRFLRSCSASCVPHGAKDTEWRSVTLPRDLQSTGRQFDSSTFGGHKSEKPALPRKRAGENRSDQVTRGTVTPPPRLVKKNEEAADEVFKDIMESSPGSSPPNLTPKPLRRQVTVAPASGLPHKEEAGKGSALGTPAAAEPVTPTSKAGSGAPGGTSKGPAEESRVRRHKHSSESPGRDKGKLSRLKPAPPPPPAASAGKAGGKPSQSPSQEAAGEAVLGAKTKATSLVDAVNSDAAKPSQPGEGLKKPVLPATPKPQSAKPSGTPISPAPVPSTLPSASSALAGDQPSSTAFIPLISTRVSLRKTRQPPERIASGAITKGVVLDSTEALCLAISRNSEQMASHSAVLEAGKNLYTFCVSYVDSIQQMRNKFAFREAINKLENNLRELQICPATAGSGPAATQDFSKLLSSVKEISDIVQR
Method in brief: as §1

[4] = molecular target: T4, Pak4 (Homo sapiens, UniProt O96013)
T4 construct: purchased Invitrogen (Life Technologies) SelectScreen Z'-LYTE
Method in brief: as §1

[5] = molecular target: T5, FGFR3 (Homo sapiens, UniProt P22607)
T5 construct: purchased Invitrogen (Life Technologies) SelectScreen Z'-LYTE
Method in brief: as §1

[6] = molecular target: T6, MET (cMet) (Homo sapiens, UniProt P08581)
T6 construct: purchased Invitrogen (Life Technologies) SelectScreen Z'-LYTE
Method in brief: as §1

[7] = molecular target: T7, STK22D (TSSK1) (Homo sapiens, UniProt Q9BXA7)
T7 construct: purchased Invitrogen (Life Technologies) SelectScreen Z'-LYTE
T7 sequence (Q9BXA7 1-367): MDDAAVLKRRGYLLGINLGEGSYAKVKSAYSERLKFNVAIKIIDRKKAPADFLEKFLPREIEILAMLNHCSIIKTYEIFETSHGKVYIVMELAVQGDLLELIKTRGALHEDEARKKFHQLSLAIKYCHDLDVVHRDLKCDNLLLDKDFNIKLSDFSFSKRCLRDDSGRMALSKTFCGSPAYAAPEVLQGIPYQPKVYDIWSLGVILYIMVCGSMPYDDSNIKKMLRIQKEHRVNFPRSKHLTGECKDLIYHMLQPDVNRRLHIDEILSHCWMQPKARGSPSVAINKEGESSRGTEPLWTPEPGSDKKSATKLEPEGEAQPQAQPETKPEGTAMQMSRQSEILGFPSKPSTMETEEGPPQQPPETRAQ
Method in brief: as §1

[8] = molecular target: T8, PDGFRA (PDGFR alpha) (Homo sapiens, UniProt P16234)
T8 construct: purchased Invitrogen (Life Technologies) SelectScreen Z'-LYTE
T8 sequence (P16234 24-1089): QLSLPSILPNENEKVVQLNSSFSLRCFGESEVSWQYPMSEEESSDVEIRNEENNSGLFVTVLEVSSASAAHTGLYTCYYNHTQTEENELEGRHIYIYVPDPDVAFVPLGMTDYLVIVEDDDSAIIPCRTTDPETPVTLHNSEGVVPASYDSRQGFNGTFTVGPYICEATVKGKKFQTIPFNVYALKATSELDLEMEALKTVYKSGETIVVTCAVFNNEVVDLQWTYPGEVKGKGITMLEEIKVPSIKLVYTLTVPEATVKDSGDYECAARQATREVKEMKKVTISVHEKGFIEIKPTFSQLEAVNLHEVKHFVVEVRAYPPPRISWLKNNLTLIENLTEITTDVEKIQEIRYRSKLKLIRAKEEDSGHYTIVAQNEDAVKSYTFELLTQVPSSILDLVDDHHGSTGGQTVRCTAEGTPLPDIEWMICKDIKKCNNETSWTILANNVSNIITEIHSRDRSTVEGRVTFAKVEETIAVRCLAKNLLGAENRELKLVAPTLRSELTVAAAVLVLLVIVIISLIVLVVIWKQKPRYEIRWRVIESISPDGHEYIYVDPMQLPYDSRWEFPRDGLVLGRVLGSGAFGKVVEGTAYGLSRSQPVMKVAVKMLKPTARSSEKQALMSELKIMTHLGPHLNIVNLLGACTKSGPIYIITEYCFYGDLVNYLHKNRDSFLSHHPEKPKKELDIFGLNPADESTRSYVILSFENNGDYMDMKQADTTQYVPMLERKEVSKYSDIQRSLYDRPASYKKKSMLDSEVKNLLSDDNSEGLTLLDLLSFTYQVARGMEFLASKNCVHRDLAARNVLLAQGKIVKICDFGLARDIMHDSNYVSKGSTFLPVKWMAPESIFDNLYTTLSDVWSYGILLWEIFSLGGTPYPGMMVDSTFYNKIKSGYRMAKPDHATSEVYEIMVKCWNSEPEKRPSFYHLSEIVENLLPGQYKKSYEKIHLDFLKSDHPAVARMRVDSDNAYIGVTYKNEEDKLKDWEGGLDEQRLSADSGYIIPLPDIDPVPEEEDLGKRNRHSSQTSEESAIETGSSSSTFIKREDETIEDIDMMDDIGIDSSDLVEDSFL
Method in brief: as §1

[9] = molecular target: T9, CDK7/cyclin H/MNAT1 (Homo sapiens, UniProt P50613)
T9 construct: purchased Invitrogen (Life Technologies) SelectScreen Z'-LYTE
Method in brief: as §1

[10] = molecular target: T10, SYK (Homo sapiens, UniProt P43405)
T10 construct: purchased Invitrogen (Life Technologies) SelectScreen Z'-LYTE
Method in brief: as §1

[11] = molecular target: T11, AXL (Homo sapiens, UniProt P30530)
T11 construct: purchased Invitrogen (Life Technologies) SelectScreen Z'-LYTE
T11 sequence (P30530 26-894): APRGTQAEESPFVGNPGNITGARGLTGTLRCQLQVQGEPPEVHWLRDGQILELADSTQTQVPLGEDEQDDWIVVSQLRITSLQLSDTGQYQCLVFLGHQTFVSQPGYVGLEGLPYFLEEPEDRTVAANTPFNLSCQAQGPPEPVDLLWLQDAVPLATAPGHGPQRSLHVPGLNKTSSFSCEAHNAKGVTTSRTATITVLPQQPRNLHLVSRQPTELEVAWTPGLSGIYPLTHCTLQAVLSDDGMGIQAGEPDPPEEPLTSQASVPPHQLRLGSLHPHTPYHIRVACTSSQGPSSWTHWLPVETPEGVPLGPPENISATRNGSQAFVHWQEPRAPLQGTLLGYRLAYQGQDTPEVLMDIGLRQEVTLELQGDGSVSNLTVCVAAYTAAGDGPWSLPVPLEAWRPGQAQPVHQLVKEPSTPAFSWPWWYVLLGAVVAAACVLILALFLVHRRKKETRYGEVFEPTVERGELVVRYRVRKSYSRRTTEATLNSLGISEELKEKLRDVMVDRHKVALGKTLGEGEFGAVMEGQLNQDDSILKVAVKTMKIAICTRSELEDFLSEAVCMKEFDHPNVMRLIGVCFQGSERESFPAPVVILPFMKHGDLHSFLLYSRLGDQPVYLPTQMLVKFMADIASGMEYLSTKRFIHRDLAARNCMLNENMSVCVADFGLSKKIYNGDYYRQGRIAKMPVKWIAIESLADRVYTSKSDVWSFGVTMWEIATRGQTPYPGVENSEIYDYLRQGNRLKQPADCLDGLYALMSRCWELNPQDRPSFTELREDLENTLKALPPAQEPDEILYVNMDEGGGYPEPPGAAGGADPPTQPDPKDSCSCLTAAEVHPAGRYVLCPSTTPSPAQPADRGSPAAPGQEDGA
Method in brief: as §1

[12] = molecular target: T12, PTK1 (FAK) (Homo sapiens, UniProt Q05397)
T12 construct: purchased Invitrogen (Life Technologies) SelectScreen Z'-LYTE
T12 sequence (Q05397 whole entry): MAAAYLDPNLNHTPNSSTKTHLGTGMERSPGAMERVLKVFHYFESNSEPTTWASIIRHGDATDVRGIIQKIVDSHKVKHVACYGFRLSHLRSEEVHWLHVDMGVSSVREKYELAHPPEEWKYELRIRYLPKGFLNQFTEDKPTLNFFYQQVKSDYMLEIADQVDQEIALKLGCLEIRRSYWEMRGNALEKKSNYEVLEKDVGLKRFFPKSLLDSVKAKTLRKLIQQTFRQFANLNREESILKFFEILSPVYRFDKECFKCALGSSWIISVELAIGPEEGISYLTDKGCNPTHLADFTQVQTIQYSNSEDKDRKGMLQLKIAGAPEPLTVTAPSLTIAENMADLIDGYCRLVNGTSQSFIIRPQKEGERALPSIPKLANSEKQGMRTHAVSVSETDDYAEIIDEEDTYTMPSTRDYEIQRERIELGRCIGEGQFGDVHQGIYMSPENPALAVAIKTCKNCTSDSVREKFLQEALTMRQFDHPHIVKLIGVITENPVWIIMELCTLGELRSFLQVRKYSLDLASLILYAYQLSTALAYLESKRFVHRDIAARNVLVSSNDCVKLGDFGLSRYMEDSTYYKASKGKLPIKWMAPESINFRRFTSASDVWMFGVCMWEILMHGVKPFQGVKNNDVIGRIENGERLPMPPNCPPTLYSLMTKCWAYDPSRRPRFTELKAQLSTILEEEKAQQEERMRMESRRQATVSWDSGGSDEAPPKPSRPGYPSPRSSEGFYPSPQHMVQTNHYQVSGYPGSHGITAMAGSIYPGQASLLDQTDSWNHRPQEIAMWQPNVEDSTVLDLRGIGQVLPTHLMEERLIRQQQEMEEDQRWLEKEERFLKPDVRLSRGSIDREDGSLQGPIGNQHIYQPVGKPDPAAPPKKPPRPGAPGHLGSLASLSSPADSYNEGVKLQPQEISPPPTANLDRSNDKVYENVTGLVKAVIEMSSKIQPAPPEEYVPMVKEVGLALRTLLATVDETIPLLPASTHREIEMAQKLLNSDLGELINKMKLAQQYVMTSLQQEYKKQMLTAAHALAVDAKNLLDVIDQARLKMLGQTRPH
Method in brief: as §1

[13] = molecular target: T13, RP88KA8 (RSK2) (Homo sapiens, UniProt P51812)
T13 construct: purchased Invitrogen (Life Technologies) SelectScreen Z'-LYTE
T13 sequence (P51812 whole entry): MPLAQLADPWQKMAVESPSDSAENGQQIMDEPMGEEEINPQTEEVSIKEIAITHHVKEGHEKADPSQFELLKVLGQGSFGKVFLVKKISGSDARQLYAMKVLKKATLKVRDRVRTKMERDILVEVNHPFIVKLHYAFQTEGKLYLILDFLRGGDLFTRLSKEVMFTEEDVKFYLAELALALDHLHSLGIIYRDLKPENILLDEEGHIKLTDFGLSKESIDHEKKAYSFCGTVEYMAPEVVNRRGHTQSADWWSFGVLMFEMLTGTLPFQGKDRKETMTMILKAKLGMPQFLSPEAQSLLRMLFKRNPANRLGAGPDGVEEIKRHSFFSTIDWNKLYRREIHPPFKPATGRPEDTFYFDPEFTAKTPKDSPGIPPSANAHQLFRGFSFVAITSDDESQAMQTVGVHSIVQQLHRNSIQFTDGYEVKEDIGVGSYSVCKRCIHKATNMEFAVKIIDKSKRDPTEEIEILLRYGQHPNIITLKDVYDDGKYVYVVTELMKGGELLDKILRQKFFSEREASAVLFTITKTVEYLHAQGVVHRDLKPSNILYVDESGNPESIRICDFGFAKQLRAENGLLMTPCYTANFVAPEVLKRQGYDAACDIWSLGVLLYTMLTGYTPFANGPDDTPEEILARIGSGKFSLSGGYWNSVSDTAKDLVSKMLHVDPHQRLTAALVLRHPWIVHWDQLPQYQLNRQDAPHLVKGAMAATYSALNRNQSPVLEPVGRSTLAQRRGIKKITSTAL
Method in brief: as §1

[14] = molecular target: T14, PDK1 Direct (Homo sapiens, UniProt O15530)
T14 construct: purchased Invitrogen (Life Technologies) SelectScreen Z'-LYTE
T14 sequence (O15530 1-556): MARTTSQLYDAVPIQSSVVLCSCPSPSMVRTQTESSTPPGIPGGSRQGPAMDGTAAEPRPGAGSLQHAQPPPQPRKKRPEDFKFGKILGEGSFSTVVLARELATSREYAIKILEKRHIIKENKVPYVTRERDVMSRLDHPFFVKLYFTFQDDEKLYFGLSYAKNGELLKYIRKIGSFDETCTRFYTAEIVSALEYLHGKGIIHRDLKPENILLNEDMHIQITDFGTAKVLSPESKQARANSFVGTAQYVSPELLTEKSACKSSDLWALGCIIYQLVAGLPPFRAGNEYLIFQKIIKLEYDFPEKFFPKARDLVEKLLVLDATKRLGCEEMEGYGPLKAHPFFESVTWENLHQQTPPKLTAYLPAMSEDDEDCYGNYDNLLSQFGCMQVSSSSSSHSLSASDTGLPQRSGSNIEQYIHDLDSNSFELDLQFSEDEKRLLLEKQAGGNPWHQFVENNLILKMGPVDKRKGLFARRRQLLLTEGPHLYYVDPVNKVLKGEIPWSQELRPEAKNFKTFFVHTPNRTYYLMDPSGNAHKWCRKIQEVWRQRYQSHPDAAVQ
Method in brief: as §1

T1 sequence (P07333 20-972): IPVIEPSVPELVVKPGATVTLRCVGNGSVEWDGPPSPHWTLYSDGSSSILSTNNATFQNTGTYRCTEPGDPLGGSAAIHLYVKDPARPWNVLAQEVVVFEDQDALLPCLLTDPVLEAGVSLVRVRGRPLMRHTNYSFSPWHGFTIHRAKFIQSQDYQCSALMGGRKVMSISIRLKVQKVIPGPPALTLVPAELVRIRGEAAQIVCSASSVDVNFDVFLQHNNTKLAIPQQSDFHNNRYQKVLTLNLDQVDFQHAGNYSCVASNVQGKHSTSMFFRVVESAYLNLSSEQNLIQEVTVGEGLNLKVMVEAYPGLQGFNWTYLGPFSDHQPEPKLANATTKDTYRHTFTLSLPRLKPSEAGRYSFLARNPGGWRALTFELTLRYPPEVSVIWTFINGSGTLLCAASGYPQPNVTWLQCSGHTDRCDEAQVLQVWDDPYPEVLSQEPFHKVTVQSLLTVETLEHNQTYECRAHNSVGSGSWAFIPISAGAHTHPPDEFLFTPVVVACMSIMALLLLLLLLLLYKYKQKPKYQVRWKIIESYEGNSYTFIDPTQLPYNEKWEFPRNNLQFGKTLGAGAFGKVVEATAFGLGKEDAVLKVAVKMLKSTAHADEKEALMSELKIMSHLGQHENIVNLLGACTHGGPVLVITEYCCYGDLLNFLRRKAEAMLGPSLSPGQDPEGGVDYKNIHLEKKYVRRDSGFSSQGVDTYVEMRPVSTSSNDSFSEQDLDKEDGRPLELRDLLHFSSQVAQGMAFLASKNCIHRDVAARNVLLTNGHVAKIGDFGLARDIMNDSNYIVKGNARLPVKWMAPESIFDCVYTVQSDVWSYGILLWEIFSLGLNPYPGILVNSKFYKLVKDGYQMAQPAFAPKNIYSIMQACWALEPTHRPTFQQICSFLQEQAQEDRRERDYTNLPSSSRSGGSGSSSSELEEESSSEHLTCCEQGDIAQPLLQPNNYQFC

SMILES	% inhibition of activity [1] [%]	% inhibition of activity [2] [%]	% inhibition of activity [3] [%]	% inhibition of activity [4] [%]	% inhibition of activity [5] [%]	% inhibition of activity [6] [%]	% inhibition of activity [7] [%]	% inhibition of activity [8] [%]	% inhibition of activity [9] [%]	% inhibition of activity [10] [%]	% inhibition of activity [11] [%]	% inhibition of activity [12] [%]	% inhibition of activity [13] [%]	% inhibition of activity [14] [%]
CCn1c(=O)c(-c2ccc(-c3noc(C)n3)cc2Cl)cc2cnc(Nc3ccc(C4CCN(C)CC4)cc3)nc21 [Frax716]	97	16	93	7	35	38	5	95	2	21	45	22	6	15
CCn1c(=O)c(-c2ccc(-c3cncc(C)n3)cc2Cl)cc2cnc(NCCC3CCN(C)CC3)nc21 [Frax1036]	41	24	18	6	0	36	12	2	−3	4	21	9	11	0
Cc1nc(Nc2[nH]nc3c2CN(C(=O)N[C@H](CN(C)C)c2ccccc2)C3(C)C)c2sccc2n1 [PF3758309, reference compound]	20	100	62	99	31	19	90	2	96	32	67	38	100	67
